The values below come from publication PMC12249541, “Novel Derivatives of 3-Amino-4-hydroxy-benzenesulfonamide: Synthesis, Binding to Carbonic Anhydrases, and Activity in Cancer Cell 2D and 3D Cultures” (International Journal of Molecular Sciences, 2025).

The subject of one data set is human glioblastoma U-87. Put plainly: MTT cell viability assay, U-87. The format is cell-based. The note with it: 72 h, read-out: EC50, U-87. In general terms: Formazan colour is commonly taken as a measure of viable cells.
Data set [1] has as its system human foreskin fibroblasts (HFs). Put plainly: MTT cell viability assay, fibroblasts. In kind it is cell-based. The settings on record: Fibroblast, 72 h, read-out: EC50, HF.
For data set [2], the system named is prostate adenocarcinoma PPC-1. Kind of data set: MTT cell viability assay, PPC-1. The format is cell-based. The settings on record: Homo sapiens, read-out: EC50, PPC-1.
Data set [3] relates to triple-negative breast cancer MDA-MB-231. Put plainly: MTT cell viability assay, MDA-MB-231. The note with it: read-out: EC50, MDA-MB-231. In kind it is cell-based, human.
In data set [4] the test system is U-87, MDA-MB-231, PPC-1 cell lines. Kind of data set: MTT cell viability assay, statements over several cell lines. The settings on record: for EC50 / viability at 100 µM: Homo sapiens; for EC50: read-out: EC50 values, range over different cell lines. In kind it is cell-based, human.
A further data set has as its system MDA-MB-231 spheroids. Put plainly: 3D culture (cancer spheroids), MDA-MB-231. In kind it is cell-based, human. The note with it: 10 µM.
The test system of a further data set is U-87 spheroids. Kind of data set: 3D culture (cancer spheroids), U-87. The format is cell-based, human. The note with it: 10 µM.
Data set [5] concerns recombinant human carbonic anhydrases (CAs). Kind of data set: FTSA, statements over several CA isoenzymes. The note with it: up to 200 µM. The format is binding.
A further data set relates to PPC-1 spheroids. Put plainly: 3D culture (cancer spheroids), PPC-1. In kind it is cell-based, human. The settings on record: 10 µM.
In the next data set the target is CAII (Homo sapiens, UniProt P00918). Kind of data set: Fluorescent thermal shift assay (FTSA), CAII. The format is binding. The note with it: compared with compound 24.
In the next data set the target is CAI (Homo sapiens, UniProt P00915). Put plainly: Fluorescent thermal shift assay (FTSA), CAI. The format is binding.
Chain of CAI (P00915 whole entry): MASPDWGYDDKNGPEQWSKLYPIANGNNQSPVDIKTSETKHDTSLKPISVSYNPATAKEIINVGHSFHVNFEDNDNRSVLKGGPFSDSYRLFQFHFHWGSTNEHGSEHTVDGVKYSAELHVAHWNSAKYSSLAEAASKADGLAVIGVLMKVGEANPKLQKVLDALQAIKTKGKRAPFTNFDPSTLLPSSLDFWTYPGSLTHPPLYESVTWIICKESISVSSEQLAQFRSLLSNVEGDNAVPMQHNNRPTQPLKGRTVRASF
For the next data set, the target named is CAVA (Homo sapiens, UniProt P35218). Kind of data set: Fluorescent thermal shift assay (FTSA), CAVA. In kind it is binding. The note with it: compared with compound 10.
Chain of CAVA (P35218 39-305): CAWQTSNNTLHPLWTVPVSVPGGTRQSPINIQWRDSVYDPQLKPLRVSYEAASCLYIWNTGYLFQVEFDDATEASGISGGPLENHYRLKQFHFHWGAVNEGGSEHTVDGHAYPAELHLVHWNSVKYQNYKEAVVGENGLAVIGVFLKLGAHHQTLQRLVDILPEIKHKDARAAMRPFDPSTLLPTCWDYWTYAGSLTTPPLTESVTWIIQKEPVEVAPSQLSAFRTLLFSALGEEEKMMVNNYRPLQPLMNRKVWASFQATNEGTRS
The target in another data set is CAIX (Homo sapiens, UniProt Q16790). Kind of data set: Fluorescent thermal shift assay (FTSA), CAIX. The note with it: compared with compound 10. The format is binding.
The mark [6] stands for this setting: 100 μM, 72 h, MTT, at least one of the tested cell lines.
The mark [7] stands for this setting: MTT at the end of the experiment.
[8] abbreviates: cancer cells and fibroblasts 1:1, vs control.
Where [9] appears, read: Homo sapiens, MDA-MB-231, MTT, 72 h.

Entries after “also recorded” stand apart in the source; their conditions may differ. Where two headings read alike, the source gives them in different places.

Turning to `NS(=O)(=O)c1ccc(O)c(N=Cc2ccc([N+](=O)[O-])s2)c1` [Compound 9, 4-Hydroxy-3-(((5-nitrothiophen-2-yl)methylene)amino)benzenesulfonamide], the EC50 was 23.3 ± 2.9 µM in the data set with human glioblastoma U-87; 13.8 ± 5.2 µM in [1]; 13 ± 3.5 µM in data set [2] (PPC-1, 72 h); 14 ± 3.2 µM in data set [3] (Homo sapiens, MDA-MB-231, 72 h); 13 to 23.3 µM in [4] (72 h). In addition, the viability at 100 µM in data set [4] (setting [6]) was less than 20%.
Turning to `CCOc1ccc(S(=O)(=O)N(CC)CC)cc1-n1cc(-c2ccccc2)n(CC)c1=O` [Compound 21, 4-Ethoxy-N,N-diethyl-3-(3-ethyl-2-oxo-4-phenyl-2,3-dihydro-1H-imidazol-1-yl)benzenesulfonamide], the “viability of cells in spheroids, MDA-MB-231” value in the data set on MDA-MB-231 spheroids (setting [7]) is listed as “reduced the viability”. The “spheroid growth / size, MDA-MB-231” value with MDA-MB-231 spheroids (setting [8]) is recorded as “reduced the growth”. Also, the “viability of cells in spheroids, U-87” value in the data set on U-87 spheroids (setting [7]) was “reduced the viability”. In the data set on U-87 spheroids (setting [8]), the “spheroid growth / size, U-87” value is “reduced the growth”. Also, in data set [5], the “binding to CA isoenzymes (in words)” value was “completely lost its ability to bind; also recorded: abolished the ability; also recorded: did not bind any of the tested CAs”. Besides, the EC50 is 148 ± 10.4 µM in the data set with human glioblastoma U-87 (MTT); 259 ± 8.4 µM in data set [1] (MTT); 43.7 ± 15 µM in [2] (PPC-1, MTT, 72 h); 57.3 ± 15 µM in data set [3] (setting [9]); 43.7 to 148 µM in data set [4] (MTT, 72 h). In addition, the viability at 100 µM in data set [4] (setting [6]) is less than 20%. The “selectivity for cancer cells over fibroblasts” value in data set [4] (from EC50 values, cancer cell lines vs HF) is on record as 1.5–6 times. The “viability of cells in spheroids, PPC-1” value with PPC-1 spheroids (setting [7]) is “reduced the viability”. In the data set with PPC-1 spheroids (setting [8]), the “spheroid growth / size, PPC-1” value was “no statistically significant effect”.
As to `NS(=O)(=O)c1ccc(O)c(NCC(=NN=C(CNc2cc(S(N)(=O)=O)ccc2O)c2ccccc2)c2ccccc2)c1` [Compound 18, 3,3′-((Hydrazine-1,2-diylidenebis(2-phenylethan-1-yl-2-ylidene))bis(azanediyl))bis(4-hydroxybenzenesulfonamide)], the EC50 in the data set on human glioblastoma U-87 (MTT) is 105 ± 6 µM; in data set [1] (MTT), 134 ± 11.1 µM; in data set [2] (PPC-1, MTT, 72 h) it was 108 ± 17.7 µM; in data set [3] (setting [9]), 127 ± 20.8 µM. The viability at 100 µM in data set [4] (setting [6]) was less than 20%.
`CC(=O)Nc1cc(S(=O)(=O)NC(C)=O)ccc1O` [Compound 27, N -((3-Acetamido-4-hydroxyphenyl)sulfonyl)acetamide]: the “binding to CA isoenzymes (in words)” value in [5] was “did not interact; also recorded: abolished the ability”.
Take `COC(=O)CCNc1cc(S(N)(=O)=O)ccc1O` [Compound 25, Methyl 3-((2-hydroxy-5-sulfamoylphenyl)amino)propanoate]: the “fold increase in affinity, CAII” value at CAII is on record as roughly 40 ×.
For the compound `CCOc1ccc(S(=O)(=O)N(CC)CC)cc1-n1cc(-c2ccccc2)nc1SCC` [Compound 23, 4-Ethoxy-N,N-diethyl-3-(2-(ethylthio)-4-phenyl-1H-imidazol-1-yl)benzenesulfonamide], the “binding to CA isoenzymes (in words)” value in data set [5] is on record as “lost its affinity; also recorded: abolished the ability”.
Take `NS(=O)(=O)c1ccc(O)c(NCC(=O)c2ccc(Cl)cc2)c1` [Compound 12, 4-Hydroxy-3-((2-(4-chlorophenyl)-2-oxoethyl)amino)benzenesulfonamide]: the “melting temperature (Tm) of CAI with increasing compound concentration” value on CAI (0–200 µM of compound, FTSA) lay in the range of 56 to 66 °C. Further, the EC50 with human glioblastoma U-87 (MTT) was determined as 137 ± 15.4 µM; in data set [1] (MTT), 166 ± 7 µM; in data set [2] (PPC-1, MTT, 72 h) it was 137 ± 15.5 µM; in data set [3] (setting [9]) it was 148 ± 22.5 µM. Further, the viability at 100 µM in [4] (setting [6]) is less than 20%.
Turning to `NS(=O)(=O)c1ccc(NC(=O)Nc2ccc(F)cc2)cc1` [Compound U-104, reference compound], the EC50 in data set [3] (MTT, 72 h) stood at 240 ± 18 µM.
On to `NS(=O)(=O)c1ccc(O)c(NCC(=O)c2cccc3ccccc23)c1` [Compound 14, 4-Hydroxy-3-((2-(naphthalen-1-yl)-2-oxoethyl)amino)benzenesulfonamide], for which the “fold increase in affinity, CAI” value on CAI (compared with compound 10) is recorded as 60 ×. Besides, the “fold increase in affinity, CAVA” value on CAVA was determined as 9 ×. Besides, the cell viability result in [4] (setting [6]) was “did not show high cytotoxicity”. Besides, at CAIX, the “fold increase in affinity, CAIX” value is reported as 4.5 ×.

One may read the EC50 as the concentration at which the effect is half-maximal. Broadly, the viability is a read-out of living cells in per cent, often relative to untreated cells. Higher therefore signals less harm to the cells.
